# Literature values in patent publication US20160220684A1, “COMPOSITION AND METHOD FOR RELIEVING PAIN AND INFLAMMATION, TREATMENT OF ERECTILE DYSFUNCTION, AND TREATMENT OF ACNE” (priority 2014, published 2016).
# System: intractable pain
# Settings: patients with metastatic cancer refractory to opioids; article published May 28, 2015
compound,measurement,value
"O=C(c1ccccc1)c1ccc2n1CCC2C(=O)O (racemic) [keterolac, (±)-5-benzoyl-2,3-dihydro-1H-pyrrolizine-1-carboxylic acid, compounded with 2-amino-2-(hydroxymethyl)-1,3-propanediol]",analgesic effectiveness in intractable pain,only effective non-opiod analgesic
